Results taken from ChEMBL document CHEMBL3797178, “Synthesis, antimycobacterial and antibacterial activity of 1-(6-amino-3,5-difluoropyridin-2-yl)fluoroquinolone derivatives containing an oxime functional moiety” (2016).
≈ marks a conversion by molar mass, not a printed value.

Tests used:
Format in all cases: functional
Enterococcus faecalis [1] = test: Antibacterial activity against Enterococcus faecalis 14-1 after 18 to 24 hrs by CLSI M100-S11 method
Klebsiella pneumoniae [2] = test: Antibacterial activity against Klebsiella pneumoniae 14-1 after 18 to 24 hrs by CLSI M100-S11 method
[3] = tested on: Staphylococcus epidermidis; test: Antibacterial activity against methicillin-resistant Staphylococcus epidermidis 14-39 after 18 to 24 hrs by CLSI M100-S11 method
Pseudomonas aeruginosa [4] = test: Antibacterial activity against Pseudomonas aeruginosa 14-19 after 18 to 24 hrs by CLSI M100-S11 method
Pseudomonas aeruginosa [5] = test: Antibacterial activity against Pseudomonas aeruginosa ATCC 27853 after 18 to 24 hrs by CLSI M100-S11 method
Klebsiella pneumoniae [6] = test: Antibacterial activity against Klebsiella pneumoniae 14-4 after 18 to 24 hrs by CLSI M100-S11 method
[7] = tested on: Staphylococcus epidermidis; test: Antibacterial activity against methicillin-resistant Staphylococcus epidermidis 14-37 after 18 to 24 hrs by CLSI M100-S11 method
Escherichia coli [8] = test: Antibacterial activity against extended-spectrum beta-lactamase-producing Escherichia coli 14-1 after 18 to 24 hrs by CLSI M100-S11 method
Pseudomonas aeruginosa [9] = test: Antibacterial activity against Pseudomonas aeruginosa 14-9 after 18 to 24 hrs by CLSI M100-S11 method
Enterococcus faecalis [10] = test: Antibacterial activity against Enterococcus faecalis 14-3 after 18 to 24 hrs by CLSI M100-S11 method
Enterococcus faecium [11] = test: Antibacterial activity against Enterococcus faecium 14-2 after 18 to 24 hrs by CLSI M100-S11 method
Escherichia coli [12] = test: Antibacterial activity against Escherichia coli 14-2 after 18 to 24 hrs by CLSI M100-S11 method
Klebsiella pneumoniae [13] = test: Antibacterial activity against extended-spectrum beta-lactamase-producing Klebsiella pneumoniae 14-17 after 18 to 24 hrs by CLSI M100-S11 method
Staphylococcus aureus [14] = test: Antibacterial activity against methicillin-sensitive Staphylococcus aureus 14-2 after 18 to 24 hrs by CLSI M100-S11 method
Streptococcus pneumoniae = test: Antibacterial activity against Streptococcus pneumoniae ATCC 19615 after 18 to 24 hrs by CLSI M100-S11 method
Pseudomonas aeruginosa [15] = test: Antibacterial activity against Pseudomonas aeruginosa 14-15 after 18 to 24 hrs by CLSI M100-S11 method
Staphylococcus aureus [16] = test: Antibacterial activity against methicillin-resistant Staphylococcus aureus 14-4 after 18 to 24 hrs by CLSI M100-S11 method
[17] = tested on: Staphylococcus epidermidis; test: Antibacterial activity against methicillin-sensitive Staphylococcus epidermidis 14-4 after 18 to 24 hrs by CLSI M100-S11 method
Pseudomonas aeruginosa [18] = test: Antibacterial activity against Pseudomonas aeruginosa 14-16 after 18 to 24 hrs by CLSI M100-S11 method
Klebsiella pneumoniae [19] = test: Antibacterial activity against Klebsiella pneumoniae 14-2 after 18 to 24 hrs by CLSI M100-S11 method
Pseudomonas aeruginosa [20] = test: Antibacterial activity against Pseudomonas aeruginosa 14-14 after 18 to 24 hrs by CLSI M100-S11 method
Klebsiella pneumoniae [21] = test: Antibacterial activity against extended-spectrum beta-lactamase-producing Klebsiella pneumoniae 14-18 after 18 to 24 hrs by CLSI M100-S11 method
Escherichia coli [22] = test: Antibacterial activity against Escherichia coli ATCC 25922 after 18 to 24 hrs by CLSI M100-S11 method
Staphylococcus aureus [23] = test: Antibacterial activity against Staphylococcus aureus CMCC 26003 after 18 to 24 hrs by CLSI M100-S11 method
Enterococcus faecalis [24] = test: Antibacterial activity against Enterococcus faecalis 14-2 after 18 to 24 hrs by CLSI M100-S11 method
Klebsiella pneumoniae [25] = test: Antibacterial activity against extended-spectrum beta-lactamase-producing Klebsiella pneumoniae 14-19 after 18 to 24 hrs by CLSI M100-S11 method
[26] = tested on: Mycobacterium tuberculosis; test: Antimycobacterial activity against Mycobacterium tuberculosis H37Rv ATCC 27294 after 3 days by microplate Alamar Blue assay; settings: H37Rv ATCC 27294, 72 h
Staphylococcus aureus [27] = test: Antibacterial activity against methicillin-resistant Staphylococcus aureus 14-5 after 18 to 24 hrs by CLSI M100-S11 method
Escherichia coli [28] = test: Antibacterial activity against extended-spectrum beta-lactamase-producing Escherichia coli 14-2 after 18 to 24 hrs by CLSI M100-S11 method
Klebsiella pneumoniae [29] = test: Antibacterial activity against Klebsiella pneumoniae 14-3 after 18 to 24 hrs by CLSI M100-S11 method
Staphylococcus aureus [30] = test: Antibacterial activity against methicillin-sensitive Staphylococcus aureus 14-3 after 18 to 24 hrs by CLSI M100-S11 method
[31] = tested on: Staphylococcus epidermidis; test: Antibacterial activity against methicillin-resistant Staphylococcus epidermidis 14-22 after 18 to 24 hrs by CLSI M100-S11 method
Enterococcus faecium [32] = test: Antibacterial activity against Enterococcus faecium 14-1 after 18 to 24 hrs by CLSI M100-S11 method
Escherichia coli [33] = test: Antibacterial activity against Escherichia coli 14-1 after 18 to 24 hrs by CLSI M100-S11 method
[34] = tested on: Staphylococcus epidermidis; test: Antibacterial activity against methicillin-sensitive Staphylococcus epidermidis 14-2 after 18 to 24 hrs by CLSI M100-S11 method
[35] = tested on: Staphylococcus epidermidis; test: Antibacterial activity against methicillin-sensitive Staphylococcus epidermidis 14-6 after 18 to 24 hrs by CLSI M100-S11 method
Staphylococcus aureus [36] = test: Antibacterial activity against methicillin-sensitive Staphylococcus aureus 14-4 after 18 to 24 hrs by CLSI M100-S11 method

| Structure (SMILES) | MIC (Enterococcus faecalis [1]) [µg/mL] | MIC (Klebsiella pneumoniae [2]) [µg/mL] | MIC [3] [µg/mL] | MIC (Pseudomonas aeruginosa [4]) [µg/mL] | MIC (Pseudomonas aeruginosa [5]) [µg/mL] | MIC (Klebsiella pneumoniae [6]) [µg/mL] | MIC [7] [µg/mL] | MIC (Escherichia coli [8]) [µg/mL] | MIC (Pseudomonas aeruginosa [9]) [µg/mL] | MIC (Enterococcus faecalis [10]) [µg/mL] | MIC (Enterococcus faecium [11]) [µg/mL] | MIC (Escherichia coli [12]) [µg/mL] | MIC (Klebsiella pneumoniae [13]) [µg/mL] | MIC (Staphylococcus aureus [14]) [µg/mL] | MIC (Streptococcus pneumoniae) [µg/mL] | MIC (Pseudomonas aeruginosa [15]) [µg/mL] | MIC (Staphylococcus aureus [16]) [µg/mL] | MIC [17] [µg/mL] | MIC (Pseudomonas aeruginosa [18]) [µg/mL] | MIC (Klebsiella pneumoniae [19]) [µg/mL] | other results |
| --- | --- | --- | --- | --- | --- | --- | --- | --- | --- | --- | --- | --- | --- | --- | --- | --- | --- | --- | --- | --- | --- |
| CCO/N=C1\CN(c2nc3c(cc2F)c(=O)c(C(=O)O)cn3-c2nc(N)c(F)cc2F)CC1CN (centres undefined) | 16 (≈ 32.6 µM) | 64 (≈ 130 µM) | 32 (≈ 65.1 µM) | 32 (≈ 65.1 µM) | 4 (≈ 8.14 µM) | 128 (≈ 260 µM) | 64 (≈ 130 µM) | 8 (≈ 16.3 µM) | 16 (≈ 32.6 µM) | 32 (≈ 65.1 µM) | 8 (≈ 16.3 µM) | 64 (≈ 130 µM) | 64 (≈ 130 µM) | 0.25 (≈ 0.509 µM) | 16 (≈ 32.6 µM) | 16 (≈ 32.6 µM) | 64 (≈ 130 µM) | 32 (≈ 65.1 µM) | 16 (≈ 32.6 µM) | 128 (≈ 260 µM) | MIC (Pseudomonas aeruginosa [20]): 16 µg/mL (≈ 32.6 µM); MIC (Klebsiella pneumoniae [21]): 32 µg/mL (≈ 65.1 µM); MIC (Escherichia coli [22]): 0.5 µg/mL (≈ 1.02 µM); MIC (Staphylococcus aureus [23]): 0.06 µg/mL (≈ 0.122 µM); MIC (Enterococcus faecalis [24]): 16 µg/mL (≈ 32.6 µM); MIC (Klebsiella pneumoniae [25]): 128 µg/mL (≈ 260 µM); MIC [26]: 6.56 µg/mL (≈ 13.3 µM); MIC (Staphylococcus aureus [27]): 64 µg/mL (≈ 130 µM); MIC (Escherichia coli [28]): 128 µg/mL (≈ 260 µM); MIC (Klebsiella pneumoniae [29]): 128 µg/mL (≈ 260 µM); MIC (Staphylococcus aureus [30]): 0.5 µg/mL (≈ 1.02 µM); MIC [31]: 32 µg/mL (≈ 65.1 µM); MIC (Enterococcus faecium [32]): 128 µg/mL (≈ 260 µM); MIC (Escherichia coli [33]): 64 µg/mL (≈ 130 µM); MIC [34]: 64 µg/mL (≈ 130 µM); MIC [35]: 32 µg/mL (≈ 65.1 µM); MIC (Staphylococcus aureus [36]): 0.5 µg/mL (≈ 1.02 µM) |
| CO/N=C1\CN(c2nc3c(cc2F)c(=O)c(C(=O)O)cn3-c2nc(N)c(F)cc2F)CC1CN (centres undefined) | 16 (≈ 33.5 µM) | > 128 | 64 (≈ 134 µM) | 64 (≈ 134 µM) | 4 (≈ 8.38 µM) | > 128 | 128 (≈ 268 µM) | 16 (≈ 33.5 µM) | 16 (≈ 33.5 µM) | 32 (≈ 67 µM) | 64 (≈ 134 µM) | 128 (≈ 268 µM) | 128 (≈ 268 µM) | 0.5 (≈ 1.05 µM) | 64 (≈ 134 µM) | 32 (≈ 67 µM) | > 128 | 64 (≈ 134 µM) | 32 (≈ 67 µM) | > 128 | MIC (Pseudomonas aeruginosa [20]): 32 µg/mL (≈ 67 µM); MIC (Klebsiella pneumoniae [21]): 32 µg/mL (≈ 67 µM); MIC (Escherichia coli [22]): 2 µg/mL (≈ 4.19 µM); MIC (Staphylococcus aureus [23]): 0.5 µg/mL (≈ 1.05 µM); MIC (Enterococcus faecalis [24]): 16 µg/mL (≈ 33.5 µM); MIC (Klebsiella pneumoniae [25]): > 128 µg/mL; MIC [26]: 7.13 µg/mL (≈ 14.9 µM); MIC (Staphylococcus aureus [27]): 64 µg/mL (≈ 134 µM); MIC (Escherichia coli [28]): > 128 µg/mL; MIC (Klebsiella pneumoniae [29]): > 128 µg/mL; MIC (Staphylococcus aureus [30]): 0.5 µg/mL (≈ 1.05 µM); MIC [31]: 64 µg/mL (≈ 134 µM); MIC (Enterococcus faecium [32]): > 128 µg/mL; MIC (Escherichia coli [33]): 128 µg/mL (≈ 268 µM); MIC [34]: > 128 µg/mL; MIC [35]: 64 µg/mL (≈ 134 µM); MIC (Staphylococcus aureus [36]): 0.25 µg/mL (≈ 0.524 µM) |
